20 compounds from patent publication US20100204203A1, “Chemical Compounds 637: Pyridopyrimidinediones as PDE4 Inhibitors” (priority 2007, published 2010) can be followed below.

The structures appear in SMILES notation.

Chain of recombinant Human Phosphodiesterase B2 (PDE4B2) (Q07343 1-564 isoform Q07343-2): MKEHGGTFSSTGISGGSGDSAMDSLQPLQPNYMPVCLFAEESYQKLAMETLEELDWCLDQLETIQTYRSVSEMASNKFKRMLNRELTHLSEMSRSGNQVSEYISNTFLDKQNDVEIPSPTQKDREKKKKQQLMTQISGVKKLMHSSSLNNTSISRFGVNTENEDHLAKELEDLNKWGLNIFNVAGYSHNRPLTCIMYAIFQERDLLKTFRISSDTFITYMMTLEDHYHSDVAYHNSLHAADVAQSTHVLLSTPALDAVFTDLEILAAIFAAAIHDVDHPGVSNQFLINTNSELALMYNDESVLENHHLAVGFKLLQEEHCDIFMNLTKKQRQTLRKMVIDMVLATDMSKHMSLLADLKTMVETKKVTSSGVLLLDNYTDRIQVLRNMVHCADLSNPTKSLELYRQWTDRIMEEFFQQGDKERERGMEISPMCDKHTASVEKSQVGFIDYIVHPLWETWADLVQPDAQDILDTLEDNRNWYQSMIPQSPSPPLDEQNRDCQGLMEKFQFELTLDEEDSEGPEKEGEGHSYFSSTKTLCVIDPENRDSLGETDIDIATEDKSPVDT

The target in this experiment is recombinant Human Phosphodiesterase B2 (PDE4B2) (Homo sapiens, UniProt Q07343). Description: Human Phosphodiesterase B2 Radiometric Assay (yttrium silicate SPA beads, [3H]cyclic AMP). The format is biochemical. To be noted: recombinant human PDE4B2, radiometric SPA assay, 8 nM [3H]cyclic AMP; read-out: PDE4B2 pIC50 (converted). An outline of the steps:
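Read-out is scintillation proximity: yttrium silicate beads (with 18 mM ZnSO4, added to stop the reaction) bind 5′AMP formed from 8 nM [3H]cAMP over 20 min. Beforehand, compound and 0.1 mg/mL enzyme were preincubated 30 min at 30 °C in pH 7.5 HEPES buffer with MgCl2, EGTA and Brij 35; pIC50 values were curve-fitted.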
`Cc1nc(C(=O)N[C@H]2CC[C@@H](n3c(=O)c4cc(F)cnc4n(-c4cccc(-c5ccc(CN6CCN(C(C)C)CC6)cc5)c4)c3=O)CC2)cs1` [Example 244, N-{cis-4-[6-fluoro-1-{4′-[(4-isopropylpiperazin-1-yl)methyl]biphenyl-3-yl}-2,4-dioxo-1,4-di-hydropyrido[2,3-d]pyrimidin-3(2H)-yl]cyclohexyl}-2-methyl-1,3-thiazole-4-carboxamide]: the IC50 is 0.01 nM.

Consider `O=CN1CCCN(Cc2cc(O)ccc2-c2cccc(-n3c(=O)n([C@H]4CC[C@@H](NCc5cn6cc(F)ccc6n5)CC4)c(=O)c4cc(F)cnc43)c2)CC1` [Example 376, 4-({3′-[6-fluoro-3-(cis-4-{[(6-fluoroimidazo[1,2-a]pyridin-2-yl)methyl]amino}cyclohexyl)-2,4-dioxo-3,4-dihydropyrido[2,3-d]pyrimidin-1(2H)-yl]-4-hydroxybiphenyl-2-yl}methyl)-1,4-diazepane-1-carbaldehyde], for which the IC50 is 0.0398 nM.

For the compound `CN(CCO)Cc1cc(O)ccc1-c1cccc(-n2c(=O)n([C@H]3CC[C@@H](NCc4cn5cc(F)ccc5n4)CC3)c(=O)c3cc(F)cnc32)c1` [Example 329, 6-fluoro-3-(cis-4-{[(6-fluoroimidazo[1,2-a]pyridin-2-yl)methyl]amino}cyclohexyl)-1-(4′-hydroxy-2′-{[(2-hydroxyethyl) (methyl)amino]methyl}biphenyl-3-yl)pyrido[2,3-d]pyrimidine-2,4(1H,3H)-dione], the IC50 was 0.126 nM.

In the case of `O=C(N[C@H]1CC[C@@H](n2c(=O)c3cc(F)cnc3n(-c3cccc(-c4ccc(O)cc4)c3)c2=O)CC1)c1cn2cc(F)ccc2n1` [Example 22, 6-fluoro-N-{cis-4-[6-fluoro-1-(4′-hydroxybiphenyl-3-yl)-2,4-dioxo-1,4-dihydropyrido[2,3-d]pyrimidin-3(2H)-yl]cyclohexyl}imidazo[1,2-a]pyridine-2-carboxamide.], the IC50 is 0.0251 nM.

`O=C1CN(Cc2cc(O)ccc2-c2cccc(-n3c(=O)n([C@H]4CC[C@@H](NCc5cn6cc(F)ccc6n5)CC4)c(=O)c4cc(F)cnc43)c2)CCN1` [Example 377, 6-fluoro-3-(cis-4-{[(6-fluoroimidazo[1,2-a]pyridin-2-yl)methyl]amino}cyclohexyl)-1-{4′-hydroxy-2′-[(3-oxopiperazin-1-yl)methyl]biphenyl-3-yl}pyrido[2,3-d]pyrimidine-2,4(1H,3H)-dione]: the IC50 was 0.0631 nM.

As for `O=C1CCN(Cc2cc(O)ccc2-c2cccc(-n3c(=O)n([C@H]4CC[C@@H](NCc5cn6cc(F)ccc6n5)CC4)c(=O)c4cc(F)cnc43)c2)CCN1` [Example 375, 6-fluoro-3-(cis-4-{[(6-fluoroimidazo[1,2-a]pyridin-2-yl)methyl]amino}cyclohexyl)-1-{4′-hydroxy-2′-[(5-oxo-1,4-diazepan-1-yl)methyl]biphenyl-3-yl}pyrido[2,3-d]pyrimidine-2,4(1H,3H)-dione], the IC50 was 0.0126 nM.

For `O=C(N[C@H]1CC[C@@H](n2c(=O)c3cc(F)cnc3n(-c3cccc(-c4ccc(CCCNCCCO)cc4)c3)c2=O)CC1)c1cn2cc(F)ccc2n1` [Example 96, 6-fluoro-N-{cis-4-[6-fluoro-1-(4′-{3-[(3-hydroxypropyl)amino]propyl}biphenyl-3-yl)-2,4-dioxo-1,4-dihydropyrido[2,3-d]pyrimidin-3(2H)-yl]cyclohexyl}imidazo[1,2-a]pyridine-2-carboxamide], the IC50 was 0.0126 nM.

`O=C(N[C@H]1CC[C@@H](n2c(=O)c3cc(F)cnc3n(-c3cccc(-c4ccc(CN5CCC(N6CCCCC6)CC5)cc4)c3)c2=O)CC1)c1nc2ccccc2[nH]1` [Example 298, N-{cis-4-[1-[4′-(1,4′-bipiperidin-1′-ylmethyl)biphenyl-3-yl]-6-fluoro-2,4-dioxo-1,4-dihydropyrido[2,3-d]pyrimidin-3(2R)-yl]cyclohexyl}-1H-benzimidazole-2-carboxamide]: the IC50 was 0.0316 nM.

For the compound `Cc1cnc(C(=O)N[C@H]2CC[C@@H](n3c(=O)c4cc(F)cnc4n(-c4cccc(-c5ccc(CN6CCN(C7CCCC7)CC6)cc5)c4)c3=O)CC2)cn1` [Example 288, N-{cis-4-[1-{4′-[(4-cyclopentylpiperazin-1-yl)methyl]biphenyl-3-yl}-6-fluoro-2,4-dioxo-1,4-dihydropyrido[2,3-d]pyrimidin-3(2H)-yl]cyclohexyl}-5-methylpyrazine-2-carboxamide], the IC50 was 0.0501 nM.

In the case of `Cc1cccc(C(=O)N[C@H]2CC[C@@H](n3c(=O)c4cc(F)cnc4n(-c4cccc(-c5ccc(CN6CCCNCC6)cc5)c4)c3=O)CC2)n1` [Example 356, N-{cis-4-[1-[4′-(1,4-diazepan-1-ylmethyl)biphenyl-3-yl]-6-fluoro-2,4-dioxo-1,4-dihydropyrido[2,3-d]pyrimidin-3(2H)-yl]cyclohexyl}-6-methylpyridine-2-carboxamide], the IC50 was 0.0631 nM.

Turning to `O=C(N[C@H]1CC[C@@H](n2c(=O)c3cc(F)cnc3n(-c3cccc(-c4ccc(CN5CCNCC5)cc4)c3)c2=O)CC1)c1cn2cc(F)ccc2n1` [Example 54, 6-fluoro-N-{cis-4-[6-fluoro-2,4-dioxo-1-[4′-(piperazin-1-ylmethyl)biphenyl-3-yl]-1,4-dihydropyrido[2,3-d]pyrimidin-3(2H)-yl]cyclohexyl}imidazo[1,2-a]pyridine-2-carboxamide], the IC50 was 0.0158 nM.

Regarding `O=C(N[C@H]1CC[C@@H](n2c(=O)c3cc(F)cnc3n(-c3cccc(-c4ccc(CN5CCC(N6CCCCC6)CC5)cc4)c3)c2=O)CC1)c1cnc2ccccc2n1` [Example 296, N-{cis-4-[1-[4′-(1,4′-bipiperidin-1′-ylmethyl)biphenyl-3-yl]-6-fluoro-2,4-dioxo-1,4-dihydropyrido[2,3-d]pyrimidin-3(2H)-yl]cyclohexyl} quinoxaline-2-carboxamide], the IC50 was 0.01 nM.

With `O=c1c2cc(F)cnc2n(-c2cccc(-c3ccc(O)cc3CN3CCOCC3)c2)c(=O)n1[C@H]1CC[C@@H](NCc2cc(Cl)ccc2O)CC1` [Example 250, 3-{cis-4-[(5-Chloro-2-hydroxybenzyl)amino]cyclohexyl}-6-fluoro-1-[4′-hydroxy-2′-(morpholin-4-ylmethyl)biphenyl-3-yl]pyrido[2,3-d]pyrimidine-2,4(1H,3H)-dione], the IC50 was 0.2 nM.

With `O=C(N[C@H]1CC[C@@H](n2c(=O)c3cc(F)cnc3n(-c3cccc(-c4ccc(CN5CCCOCC5)cc4)c3)c2=O)CC1)c1ccc(OCCN2CCCC2)cc1` [Example 307, N-{cis-4-[6-fluoro-1-[4′-(1,4-oxazepan-4-ylmethyl)biphenyl-3-yl]-2,4-dioxo-1,4-dihydropyrido[2,3-d]pyrimidin-3(2H)-yl]cyclohexyl}-4-(2-pyrrolidin-1-ylethoxy)benzamide], the IC50 was 2.51 nM.

`Cc1cc(C(=O)N[C@H]2CC[C@@H](n3c(=O)c4cc(F)cnc4n(-c4cccc(-c5ccc(CN(C)CCN(C)C)cc5)c4)c3=O)CC2)nn1C` [Example 113, N-{cis-4-[1-(4′-{[[2-(dimethylamino)ethyl](methyl)amino]methyl}biphenyl-3-yl)-6-fluoro-2,4-dioxo-1,4-dihydropyrido[2,3-d]pyrimidin-3(2H)-yl]cyclohexyl}-1,5-dimethyl-1H-pyrazole-3-carboxamide]: the IC50 is 0.0126 nM.

Consider `Cc1cccc2nc(CN[C@H]3CC[C@@H](n4c(=O)c5cc(F)cnc5n(-c5cccc(-c6ccc(O)cc6CN6CCOCC6)c5)c4=O)CC3)cn12` [Example 335, 6-fluoro-1-[4′-hydroxy-2′-(morpholin-4-ylmethyl)biphenyl-3-yl]-3-(cis-4-{[(5-methylimidazo[1,2-c]pyridin-2-yl)methyl]amino}cyclohexyl)pyrido[2,3-d]pyrimidine-2,4(1H,3H)-dione], for which the IC50 was 0.00794 nM.

Consider `O=c1c2cc(F)cnc2n(-c2cccc(-c3ccc(O)cc3CN3CCCOCC3)c2)c(=O)n1[C@H]1CC[C@@H](NCc2cn3cc(F)ccc3n2)CC1` [Example 254, 6-Fluoro-3-(cis-4-{[(6-fluoroimidazo[1,2-a]pyridin-2-yl)methyl]amino}cyclohexyl)-1-[4′-hydroxy-2′-(1,4-oxazepan-4-ylmethyl)biphenyl-3-yl]pyrido[2,3-d]pyrimidine-2,4(1H,3H)-dione], for which the IC50 is 0.0316 nM.

As to `CN(C)C1(C(=O)N[C@H]2CC[C@@H](n3c(=O)c4cc(F)cnc4n(-c4cccc(-c5ccc(CN6CCN(CC(=O)N7CCOCC7)CC6)cc5)c4)c3=O)CC2)CC1` [Example 212, 1-(dimethylamino)-N-{cis-4-[6-fluoro-1-(4′-{[4-(2-morpholin-4-yl-2-oxoethyl)piperazin-1-yl]methyl}biphenyl-3-yl)-2,4-dioxo-1,4-dihydropyrido[2,3-d]pyrimidin-3(2H)-yl]cyclohexyl} cyclopropanecarboxamide], the IC50 was 0.0126 nM.

As for `CC(C)(C)OC(=O)NCc1cccc(-c2cccc(-n3c(=O)n([C@H]4CC[C@@H](NC(=O)c5cn6cc(F)ccc6n5)CC4)c(=O)c4cc(F)cnc43)c2)c1` [Example 18, tert-butyl ({3′-[6-fluoro-3-(cis-4-{[(6-fluoroimidazo[1,2-a]pyridin-2-yl)carbonyl]amino}cyclohexyl)-2,4-dioxo-3,4-dihydropyrido[2,3-d]pyrimidin-1(2H)-yl]biphenyl-3-yl}methyl)carbamate.], the IC50 is 0.0631 nM.

On to `COCCN(C)Cc1cc(O)ccc1-c1cccc(-n2c(=O)n([C@H]3CC[C@@H](NCc4cn5cc(F)ccc5n4)CC3)c(=O)c3cc(F)cnc32)c1` [Example 327, 6-fluoro-3-(cis-4-{[(6-fluoroimidazo[1,2-a]pyridin-2-yl)methyl]amino}cyclohexyl)-1-(4′-hydroxy-2′-{[(2-methoxyethyl)(methyl)amino]methyl}biphenyl-3-yl)pyrido[2,3-d]pyrimidine-2,4(1H,3H)-dione], for which the IC50 was 0.251 nM.
